Experimental data taken from PMC11101940, “A highly selective KIT inhibitor MOD000001 suppresses IgE-mediated mast cell activation” (The Journal of Allergy and Clinical Immunology: Global, 2024).

Columns and labels:
Assay type in all cases: biochemical
[1] = target: platelet derived growth factor-receptor A (PDGFRA) (Homo sapiens, UniProt P16234); assay: cell-free recombinant human kinase assay
KIT = KIT (Homo sapiens, UniProt P10721); assay: cell-free recombinant human kinase assay (also KINOMEscan binding)
[2] = target: platelet derived growth factor-receptor B (PDGFRB) (Homo sapiens, UniProt P09619); assay: cell-free recombinant human kinase assay
Chain of platelet derived growth factor-receptor B (PDGFRB) (P09619 33-1106): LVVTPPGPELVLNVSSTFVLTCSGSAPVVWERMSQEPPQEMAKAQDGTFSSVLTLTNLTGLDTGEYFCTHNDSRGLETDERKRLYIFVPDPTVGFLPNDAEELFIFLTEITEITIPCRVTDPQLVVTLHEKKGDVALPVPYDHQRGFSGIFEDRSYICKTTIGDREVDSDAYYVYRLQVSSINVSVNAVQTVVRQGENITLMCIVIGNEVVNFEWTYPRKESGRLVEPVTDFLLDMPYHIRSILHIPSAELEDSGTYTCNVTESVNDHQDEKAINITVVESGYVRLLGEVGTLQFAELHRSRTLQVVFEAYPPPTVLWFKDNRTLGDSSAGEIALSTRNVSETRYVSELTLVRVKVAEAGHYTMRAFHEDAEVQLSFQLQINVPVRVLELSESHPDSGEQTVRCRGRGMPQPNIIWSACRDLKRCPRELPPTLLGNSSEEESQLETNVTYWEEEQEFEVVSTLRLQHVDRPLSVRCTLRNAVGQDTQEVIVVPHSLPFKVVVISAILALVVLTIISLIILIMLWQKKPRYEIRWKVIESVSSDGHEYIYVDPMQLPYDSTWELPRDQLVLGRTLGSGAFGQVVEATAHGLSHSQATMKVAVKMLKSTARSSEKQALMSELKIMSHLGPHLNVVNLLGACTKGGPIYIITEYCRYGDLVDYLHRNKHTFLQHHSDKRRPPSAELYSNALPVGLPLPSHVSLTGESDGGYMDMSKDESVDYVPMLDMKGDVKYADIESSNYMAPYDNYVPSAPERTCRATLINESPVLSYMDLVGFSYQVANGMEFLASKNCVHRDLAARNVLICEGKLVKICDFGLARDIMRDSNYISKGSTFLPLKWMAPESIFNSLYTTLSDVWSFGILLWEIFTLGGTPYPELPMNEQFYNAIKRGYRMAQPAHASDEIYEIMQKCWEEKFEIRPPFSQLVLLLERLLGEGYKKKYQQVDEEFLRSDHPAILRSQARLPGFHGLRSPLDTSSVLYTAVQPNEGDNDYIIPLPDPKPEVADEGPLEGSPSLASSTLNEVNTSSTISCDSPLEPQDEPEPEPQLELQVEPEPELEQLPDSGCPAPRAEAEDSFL

Chain of platelet derived growth factor-receptor A (PDGFRA) (P16234 24-1089): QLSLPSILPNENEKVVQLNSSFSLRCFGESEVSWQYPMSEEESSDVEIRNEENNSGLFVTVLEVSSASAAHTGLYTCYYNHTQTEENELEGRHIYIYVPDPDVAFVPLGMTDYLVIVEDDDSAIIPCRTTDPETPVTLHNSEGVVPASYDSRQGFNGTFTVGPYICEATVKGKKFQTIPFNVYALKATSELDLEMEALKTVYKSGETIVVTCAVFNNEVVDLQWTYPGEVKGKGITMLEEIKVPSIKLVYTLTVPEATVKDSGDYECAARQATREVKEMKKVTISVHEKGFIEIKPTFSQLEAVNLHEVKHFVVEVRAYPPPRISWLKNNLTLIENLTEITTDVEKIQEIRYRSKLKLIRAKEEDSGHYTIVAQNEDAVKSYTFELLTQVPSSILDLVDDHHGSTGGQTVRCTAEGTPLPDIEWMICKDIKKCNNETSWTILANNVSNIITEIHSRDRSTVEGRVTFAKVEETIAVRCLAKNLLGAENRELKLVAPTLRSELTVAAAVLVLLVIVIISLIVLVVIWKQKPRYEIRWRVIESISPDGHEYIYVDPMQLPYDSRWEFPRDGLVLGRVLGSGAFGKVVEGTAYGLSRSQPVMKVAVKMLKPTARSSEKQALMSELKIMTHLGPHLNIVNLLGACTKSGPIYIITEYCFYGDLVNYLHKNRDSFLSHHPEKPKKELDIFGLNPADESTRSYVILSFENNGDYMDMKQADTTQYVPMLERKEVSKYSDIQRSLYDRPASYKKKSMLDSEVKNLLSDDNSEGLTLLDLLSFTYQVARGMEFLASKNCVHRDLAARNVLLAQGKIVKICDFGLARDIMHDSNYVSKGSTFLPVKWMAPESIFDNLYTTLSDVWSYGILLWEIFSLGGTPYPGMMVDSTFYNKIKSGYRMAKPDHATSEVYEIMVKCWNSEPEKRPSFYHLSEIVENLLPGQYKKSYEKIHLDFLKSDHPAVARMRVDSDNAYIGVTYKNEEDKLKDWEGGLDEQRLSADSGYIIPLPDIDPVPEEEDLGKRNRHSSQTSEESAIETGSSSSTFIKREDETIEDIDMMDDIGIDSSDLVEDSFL
Chain of KIT (P10721 26-976): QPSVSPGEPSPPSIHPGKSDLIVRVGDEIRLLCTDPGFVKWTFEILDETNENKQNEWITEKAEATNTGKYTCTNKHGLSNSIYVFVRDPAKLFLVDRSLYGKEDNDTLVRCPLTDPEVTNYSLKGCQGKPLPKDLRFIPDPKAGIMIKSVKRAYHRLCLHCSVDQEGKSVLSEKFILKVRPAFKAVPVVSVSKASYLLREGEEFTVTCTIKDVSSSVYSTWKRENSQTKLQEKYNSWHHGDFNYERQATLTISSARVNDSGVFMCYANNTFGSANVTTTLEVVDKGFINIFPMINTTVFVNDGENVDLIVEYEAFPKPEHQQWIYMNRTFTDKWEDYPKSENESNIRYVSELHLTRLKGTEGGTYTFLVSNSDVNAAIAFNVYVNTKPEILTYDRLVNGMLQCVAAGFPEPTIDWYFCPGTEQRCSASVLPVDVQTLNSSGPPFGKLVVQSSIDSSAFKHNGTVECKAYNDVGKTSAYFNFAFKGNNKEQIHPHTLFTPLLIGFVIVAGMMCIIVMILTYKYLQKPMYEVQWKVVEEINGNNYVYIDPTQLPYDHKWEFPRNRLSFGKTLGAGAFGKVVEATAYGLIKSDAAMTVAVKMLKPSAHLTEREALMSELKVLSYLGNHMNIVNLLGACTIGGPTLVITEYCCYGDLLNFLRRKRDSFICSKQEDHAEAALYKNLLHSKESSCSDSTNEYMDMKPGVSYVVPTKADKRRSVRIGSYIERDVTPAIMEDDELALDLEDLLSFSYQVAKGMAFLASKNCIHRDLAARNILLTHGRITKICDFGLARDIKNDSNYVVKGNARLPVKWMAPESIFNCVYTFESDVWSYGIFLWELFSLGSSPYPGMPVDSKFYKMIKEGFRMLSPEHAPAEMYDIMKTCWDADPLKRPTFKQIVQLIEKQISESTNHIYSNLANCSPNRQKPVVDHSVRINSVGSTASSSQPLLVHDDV

- IC50 [1]: 1400 nM
- IC50 (KIT): 2 nM
- IC50 [2]: 218 nM
Substance: MOD000001
